Results from patent US8168651B2, “Protein kinase modulators” (Cylene Pharmaceuticals, Inc., priority 2008, dated 2012).
pIC50: −log10 of the molar value. Read-outs that look alike come from different tables or passages of the source.

Columns and labels:
recombinant human PIM1 = recombinant human PIM1 (Homo sapiens (Human), UniProt P11309); assay: PIM-1 kinase activity in cell-free in vitro assay; type: biochemical; conditions: for inhibition at 0.5 µM: 500 nM compound, read-out: PIM-1: % inh 500 nM
[1] = system: HCT-116 human colorectal carcinoma cells; assay: Cell-proliferation assay using Alamar Blue dye; type: cell-based; conditions: Homo sapiens, read-out: HCT-116 (uM), cell proliferation modulatory activity;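 note: cells exposed to compound for about 4 days, then Alamar Blue added and dye fluorescence read after about 4 h, compared with medium-only control wells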
[2] = HCT-116, HCT-116, second column

recombinant human PIM1, sequence (P11309 whole entry): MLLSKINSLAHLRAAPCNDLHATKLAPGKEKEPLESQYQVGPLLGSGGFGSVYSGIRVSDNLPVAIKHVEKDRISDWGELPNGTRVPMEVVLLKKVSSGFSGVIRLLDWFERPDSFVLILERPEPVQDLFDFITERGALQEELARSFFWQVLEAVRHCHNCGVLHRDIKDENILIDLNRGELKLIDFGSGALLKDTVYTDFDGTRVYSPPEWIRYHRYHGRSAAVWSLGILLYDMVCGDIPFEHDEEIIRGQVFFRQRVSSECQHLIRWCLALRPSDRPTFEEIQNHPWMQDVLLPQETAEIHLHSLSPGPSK

| inhibition at 0.5 µM (recombinant human PIM1; cell-free) | IC50 ([1]; HCT-116, HCT-116, first column) | SMILES | also measured |
| --- | --- | --- | --- |
| -24.7% | 10 µM | O=C(NCCCO)c1ccc2c(c1)nc(NCCCO)c1ccsc12 | – |
| -63.6% | 0.5 µM | CN(C)CCNc1nc2cc(C#N)ccc2c2ccccc12 | – |
| -65.4% | 10 µM | N#Cc1ccc2c(c1)nc(Nc1ccccc1)c1ccccc12 | – |
| 15.8% | 10 µM | c1ccc(Nc2nc3cc(-c4nnn[nH]4)ccc3c3ccccc23)cc1 | – |
| -22.1% | 10 µM | Clc1nc2ccccc2c2sccc12 | – |
| -26.1% | 10 µM | O=C(O)CNc1nc2cc(C(=O)O)ccc2c2sccc12 | – |
| -40.1% | 10 µM | O=C(O)c1ccc2c(c1)nc(Nc1nc3ccccc3[nH]1)c1ccsc12 | – |
| -16% | 10 µM | O=C(O)c1ccc2c(c1)nc(N1CCCC1)c1ccsc12 | – |
| 35.4% | 10 µM | CCC(c1ccccc1)c1nc2cc(C(=O)O)ccc2c2sccc12 (stereo not shown) | – |
| 3.04% | 10 µM | N#Cc1ccc2c(c1)nc(OCCCO)c1ccccc12 | – |
| 7.28% | 10 µM | OCCCOc1nc2ccccc2c2ccccc12 | – |
| 40.8% | 10 µM | OCCCOc1nc2cc(-c3nnn[nH]3)ccc2c2ccccc12 | – |
| -23.9% | 10 µM | c1ccc(Nc2nc3ccccc3c3ccccc23)cc1 | – |
| -17.5% | 10 µM | O=C(O)CNc1nc2ccccc2c2ccccc12 | – |
| 56.9% | 10 µM | CN(C)CCNc1nc2cc(-c3nnn[nH]3)ccc2c2ccccc12 | – |
| 2.59% | 10 µM | COC(=O)c1ccc2c(c1)nc(Nc1ccccc1)c1ccsc12 | – |
| -15.7% | 10 µM | CS(=O)(=O)NC(=O)c1ccc2c(c1)nc(Nc1ccccc1)c1ccsc12 | – |
| 21.8% | – | COc1ccc(OC)c(Nc2nc3cc(-c4nnn[nH]4)ccc3c3sccc23)c1 | – |
| -16% | – | N#Cc1ccc2c(c1)[nH]c(=O)c1ccncc12 | IC50 [1, 2]: > 10 µM |
| 33.1% | – | c1ccc(Nc2nc3cc(-c4nnn[nH]4)ccc3c3cnccc23)cc1 | – |
| 38.1% | – | CN(C)CCNc1nc2cc(-c3nnn[nH]3)ccc2c2cnccc12 | – |
| 4.18% | – | NC(=O)c1ccc2c(c1)[nH]c(=O)c1ccncc12 | IC50 [1, 2]: > 10 µM |

| inhibition at 0.5 µM (recombinant human PIM1; cell-free) | IC50 ([1]; HCT-116, HCT-116, first column) | SMILES | also measured |
| --- | --- | --- | --- |
| 30.7% | – | FC(F)(F)Oc1cccc(Nc2nc3cc(-c4nnn[nH]4)ccc3c3sccc23)c1 | – |
| 63% | – | COc1ccc(Nc2nc3cc(-c4nnn[nH]4)ccc3c3sccc23)cc1 | pIC50 (recombinant human PIM1; cell-free): < 5.96; IC50 [1, 2]: > 10 µM |
| 46.1% | – | CCOc1ccc(Nc2nc3cc(-c4nnn[nH]4)ccc3c3sccc23)cc1 | IC50 [1, 2]: > 10 µM |
| 32.5% | – | FC(F)(F)Oc1ccc(Nc2nc3cc(-c4nnn[nH]4)ccc3c3sccc23)cc1 | IC50 [1, 2]: > 10 µM |
| 9.03% | – | c1ccc(COc2ccc(Nc3nc4cc(-c5nnn[nH]5)ccc4c4sccc34)cc2)cc1 | IC50 [1, 2]: 15 µM |
| 55.5% | – | COc1ccc(Nc2nc3cc(-c4nnn[nH]4)ccc3c3sccc23)cc1OC | pIC50 (recombinant human PIM1; cell-free): 6.09; IC50 [1, 2]: > 10 µM |
| 27.1% | – | CC(=O)Nc1cccc(Nc2nc3cc(-c4nnn[nH]4)ccc3c3sccc23)c1 | – |
| 58% | – | Cc1cccc(Nc2nc3cc(-c4nnn[nH]4)ccc3c3sccc23)c1 | pIC50 (recombinant human PIM1; cell-free): 6.41 |
| 58% | – | O=C(O)c1cccc(Nc2nc3cc(-c4nnn[nH]4)ccc3c3sccc23)c1 | pIC50 (recombinant human PIM1; cell-free): 6.19 |
| 81.1% | – | O=C(O)c1ccc2c(c1)nc(Nc1cccc(Cl)c1)c1ccsc12 | pIC50 (recombinant human PIM1; cell-free): 6.41 |
| 26% | – | C#Cc1cccc(Nc2nc3cc(C(=O)O)ccc3c3sccc23)c1 | – |
| 47.7% | – | CCCNC(=O)c1cccc(Nc2nc3cc(-c4nnn[nH]4)ccc3c3sccc23)c1 | – |
| 9.3% | – | Fc1cc(Nc2nc3cc(-c4nnn[nH]4)ccc3c3cnccc23)ccc1Cl | – |
| – | – | O=C(O)c1ccc2c(c1)nc(Nc1ccccc1)c1nc(NC3CCNCC3)ncc12 | inhibition at 0.5 µM (recombinant human PIM1; cell-free assay): -2.53% |
| – | – | CCN(CC)CCNc1ncc2c(n1)c(Nc1ccccc1)nc1cc(C(=O)O)ccc12 | inhibition at 0.5 µM (recombinant human PIM1; cell-free assay): 4.27% |
| – | – | CCOc1ncc2c(n1)c(Nc1cccc(C(F)(F)F)c1)nc1cc(C(=O)O)ccc12 | inhibition at 0.5 µM (recombinant human PIM1; cell-free assay): -5% |
| – | – | CC(C)Nc1ncc2c(n1)c(Nc1cccc(Cl)c1)nc1cc(C(=O)O)ccc12 | inhibition at 0.5 µM (recombinant human PIM1; cell-free assay): -0.505% |
| – | – | O=C(O)c1ccc2c(c1)nc(Nc1cccc(Cl)c1)c1nc(O)ncc12 | inhibition at 0.5 µM (recombinant human PIM1; cell-free assay): 3.53% |
| – | – | Cc1ncc2c(n1)c(Nc1cccc(Cl)c1)nc1cc(C(=O)O)ccc12 | inhibition at 0.5 µM (recombinant human PIM1; cell-free assay): 12.9% |
| – | – | C#Cc1cccc(Nc2nc3cc(C(=O)OC)ccc3c3cnc(NOC)nc23)c1 | inhibition at 0.5 µM (recombinant human PIM1; cell-free assay): 0.371% |
| – | – | O=C(O)CCNc1ncc2c(n1)c(Nc1cccc(Cl)c1)nc1cc(C(=O)O)ccc12 | inhibition at 0.5 µM (recombinant human PIM1; cell-free assay): 24.2% |
| – | – | O=C(O)c1ccc2c(c1)nc(Nc1cccc(F)c1)c1nc(NC3CC3)ncc12 | inhibition at 0.5 µM (recombinant human PIM1; cell-free assay): 59.3% |
